Laboratory results as given in patent US12454531B2, “Substituted piperazine derivatives useful as T cell activators” (BRISTOL-MYERS SQUIBB COMPANY, priority 2019, dated 2025).

Molecular target: DGKα (Homo sapiens (Human), UniProt P23743)
Assay: Assay 2: In Vitro DGK Inhibition Assays, Method B (DGKα ADPGLO)
Assay type: biochemical
Settings: 150 μM ATP
Procedure: Assay 2: In Vitro DGK Inhibition Assays—Method B
The DGKα and DGKζ reactions were performed using either extruded liposome (DGKα and DGKζ LIPGLO assays) or detergent/lipid micelle substrate (DGKα and DGKζ assays). The reactions were carried out in 50 mM MOPS pH 7.5, 100 mM NaCl, 10 mM MgCl2, 1 μM CaCl2), and 1 mM DTT (assay buffer). The reactions using a detergent/lipid micelle substrate also contained 50 mM octyl B-D-glucopyranoside. The lipid substrate concentrations were 11 mM PS and 1 mM DAG for the detergent/lipid micelle reactions. The lipid substrate concentrations were 2 mM PS, 0.25 mM DAG, and 2.75 mM PC for the extruded liposome reactions (5 mM total lipid). The reactions were carried out in 150 μM ATP. The enzyme concentrations for the DGKα and DGKζ were nM.
The compound inhibition studies were carried out as follows: 25 nL droplets of each test compound (top concentration 10 mM with 11 point, 3-fold dilution series for each compound) solubilized in DMSO were transferred to wells of a white 1536 well plate (Corning 3725). A 5 mL enzyme/lipid substrate solution at 2× final reaction concentration was prepared by combining 2.5 mL 4× enzyme solution (20 nM DGKα or DGKζ (prepared as described below) in assay buffer) and 2.5 mL of either 4× liposome or 4× detergent/lipid micelle solution (compositions described below) and incubated at room temperature for 10 minutes. Next, 1 μL 2× enzyme/lipid substrate solution was added to wells containing the test compound and reactions were initiated with the addition of 1 μL 300 uM ATP. The reactions were allowed to proceed for 2 hr, after which 2 μL Glo Reagent (Promega V9101) was added and incubated for 40 minutes. Next, 4 μL Kinase Detection Reagent was added and incubated for 30 minutes. Luminescence was recorded using an EnVision microplate reader. […] The compounds were evaluated at 11 concentrations to determine IC50.
The detergent/lipid micelle was prepared by combining 15 g phosphatidylserine (Avanti 840035P) and 1 g diacylglycerol (8008110) and dissolving into 150 mL chloroform in a 2 L round bottom flask. Chloroform was removed under high vacuum by rotary evaporation. The resulting colorless, tacky oil was resuspended in 400 mL 50 mM MOPS pH 7.5, 100 mM NaCl, 20 mM NaF, 10 mM MgCl2, 1 μM CaCl2), 1 mM DTT, and 200 mM octyl glucoside by vigorous mixing. The lipid/detergent solution was split into 5 mL aliquots and stored at −80° C.
The lipid composition was 5 mol % DAG (Avanti 8008110), 40 mol % PS (Avanti 840035P), and 55 mol % PC (Avanti 850457) at a total lipid concentration of […] for the liposome solution. The PC, DAG, and PS were dissolved in chloroform, combined, and dried in vacuo to a thin film. The lipids were hydrated to 20 mM in 50 mM MOPS pH 7.5, 100 mM NaCl, 5 mM MgCl2, and were freeze-thawed five times. The lipid suspension was extruded through a 100 nm polycarbonate filter 10-12 times. Dynamic light scattering was carried out to confirm liposome size (50-60 nm radius). The liposome preparation was stored at 4° C. for as long as four weeks.
Human MA-hDGKα-(S9-S727)-Ct-TVMV-His-pFBgate and full length human DGK-ζ-transcript variant-2-TVMV-His-pFBgate baculovirus samples were generated using the Bac-to-Bac baculovirus expression system (Invitrogen) according to the manufacturer's protocol (note: MA- in name of DGKα reagents indicates two extra amino acids added prior to Ser-9). The DNA used for expression of the DGK-α(9-727) and DGK-C have SEQ ID NOs: 5 and 3, respectively. […]

DGKα, sequence (P23743 other isoform, or with tags, fused parts or gaps): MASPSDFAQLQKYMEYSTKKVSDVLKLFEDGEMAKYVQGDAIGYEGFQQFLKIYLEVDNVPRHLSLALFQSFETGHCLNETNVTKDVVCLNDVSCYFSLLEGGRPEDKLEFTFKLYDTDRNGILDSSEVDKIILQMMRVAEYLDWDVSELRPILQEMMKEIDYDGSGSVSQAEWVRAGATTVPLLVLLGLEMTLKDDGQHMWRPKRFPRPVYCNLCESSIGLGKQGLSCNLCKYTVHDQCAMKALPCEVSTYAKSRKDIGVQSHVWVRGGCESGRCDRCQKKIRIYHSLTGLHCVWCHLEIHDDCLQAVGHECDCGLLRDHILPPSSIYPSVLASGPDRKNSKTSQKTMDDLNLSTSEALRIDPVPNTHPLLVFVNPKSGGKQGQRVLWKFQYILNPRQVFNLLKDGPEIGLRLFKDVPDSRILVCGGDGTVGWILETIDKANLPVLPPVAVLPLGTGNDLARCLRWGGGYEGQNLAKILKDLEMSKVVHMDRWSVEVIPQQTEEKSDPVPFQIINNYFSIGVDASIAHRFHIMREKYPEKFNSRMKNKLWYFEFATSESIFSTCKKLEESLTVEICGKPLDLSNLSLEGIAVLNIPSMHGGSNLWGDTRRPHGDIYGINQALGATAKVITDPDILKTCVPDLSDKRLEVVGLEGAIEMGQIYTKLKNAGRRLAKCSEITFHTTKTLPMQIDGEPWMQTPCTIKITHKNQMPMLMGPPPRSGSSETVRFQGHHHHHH

IC50 [nM] | Compound
10 | CC[C@H]1CN(C(C(=O)NCCOC)c2ccc(C(F)(F)F)cc2)[C@H](CC)CN1c1nc(=O)n(C)c2ccc(C#N)nc12 (single isomer, unassigned) [Example 55]
180 | C#CCCC1(CCCOC(=O)C(c2ccc(OC)cc2)N2C[C@H](C)N(c3nc(=O)n(C)c4ccc(C#N)nc34)C[C@H]2C)N=N1 (single isomer, unassigned) [Example 60]
